Assay results: US8501214B2, “Hydrophilic foam and pharmaceutical dosage form employing the same” (priority 2007, dated 2013)
Like-named read-outs stand apart in the source and are kept apart here.

Tests used:
[1] = Solvent/water partition coefficient analysis (1-Octanol/water); assay type: physicochemical; conditions: for logP: logarithm of the ratio of 1-Octanol to water, read-out: Partition coefficient [log Poct/wat]
Description: Solvent/water partition coefficient analysis was conducted to determine the solvent/water partition coefficient. Various solvent were used in the experiments; yet, only the 1-Octanol/water partition coefficients of the active agents described herein above are summarized in Table 4. The 1-Octanol/water partition coefficient is the logarithm of the ratio of 1-Octanol to water and can be expressed as [log Poct/wat].

[2] = Transmembrane penetration analysis; assay type: in vitro ADME, swine; conditions: for True Value Concentration (completely penetrated active agent): 0.25 mL gel admixed with 5.5 mL saline; for Penetration Ratio: relative to true value
Text: The solution was admixed with the aquagel or O/W gel described hereinabove to afford an active agent-containing gel. In the comparative example, commercially available vaseline ointment was admixed with heptane to form vaseline gel, and the solution was also admixed with the vaseline gel.
In the transmembrane penetration analysis, swine endometrium was used as the membrane. The swine endometrium of suitable size was disposed between an upper container and a lower container. The lower container was filled with physiologic saline and debubbled. […] The pipetted sample was analyzed with HPLC-PDA system.
In addition, about 0.25 mL of each gel was admixed with about 5.5 mL of saline. The admixture was extracted, filtered through a filter film (0.45 μm) and then analyzes by HPLE-PDA. The results (referred to as the “true value” hereinafter) thus obtained were regarded as the amount of a completely penetrated active agent present in the lower container.

[3] = Working Example 4 (O/W gel), 21 hr
[4] = Working Example 4 (O/W gel), 24 hr
[5] = Working Example 4 (O/W gel), 26 hr
[6] = Comparative Example D (vaseline gel)
[7] = Working Example 3 (aqua gel), 1 hr
[8] = Working Example 3 (aqua gel), 3 hr
[9] = Working Example 3 (aqua gel), 5 hr
[10] = Working Example 3 (aqua gel), 21 hr
[11] = Working Example 3 (aqua gel), 24 hr

O=c1ccc2ccc3occc3c2o1 [Isopsoralen]
1-Octanol/H2O ratio [1]: 306.9
logP [1]: 2.49

C[C@@H]1[C@H](O)[C@@H](C)/C=C/C=C/CC/C=C/C=C/C=C/C=C/C(O[C@H]2O[C@H](C)[C@@H](O)[C@H](N)[C@@H]2O)CC2O[C@](O)(CC(O)C(O)CCC(O)CC(O)CC(O)CC(=O)O[C@H]1C)CC(O)C2C(=O)O (some centres unmarked) [Nystatin (NYS), Nystatin]
1-Octanol/H2O ratio [1]: 1.98
Partition coefficient [log Poct/wat] [1]: 0.30
True Value Concentration (completely penetrated active agent) ([2]; Working Example 4 (O/W gel)): 0.06448 mg/mL
Concentration in lower container [2, 3]: 0.00193 mg/mL
Penetration Ratio [2, 3]: 2.99%
Concentration in lower container [2, 4]: 0.02072 mg/mL
Penetration Ratio [2, 4]: 32.14%
Concentration in lower container [2, 5]: 0.03007 mg/mL
Penetration Ratio [2, 5]: 46.64%

CC(C)[C@]12O[C@H]1[C@@H]1O[C@]13[C@]1(O[C@H]1C[C@H]1C4=C(CC[C@@]13C)C(=O)OC4)[C@@H]2O [Triptolide]
1-Octanol/H2O ratio [1]: 54.13
logP [1]: 1.73

O=c1cc(-c2ccccc2)oc2cc(O)c(O)c(O)c12 [Baicalein]
1-Octanol/H2O ratio [1]: Insoluble in water

O=C(O)c1cc(O)c(O)c(O)c1 [Gallic acid]
1-Octanol/H2O ratio [1]: 1.859
logP [1]: 0.27

Clc1ccc(COC(Cn2ccnc2)c2ccc(Cl)cc2Cl)c(Cl)c1 (centres unmarked) [Miconazole nitrate(MIC), Miconazole nitrate]
True Value Concentration (completely penetrated active agent) ([2]; Working Example 4 (O/W gel)): 0.1401 mg/mL
Concentration in lower container [2, 3]: 0.00706 mg/mL
Concentration in lower container [2, 4]: 0.06066 mg/mL
Concentration in lower container [2, 5]: 0.08272 mg/mL

Cc1ncc([N+](=O)[O-])n1CCO [Metronidazole (MTZ), Metronidazole]
logP ([1]; 1-octanol/water): 0.05
True Value Concentration (completely penetrated active agent) [2, 6]: 0.1563 mg/mL
Concentration in lower container ([2]; Comparative Example D (vaseline gel), 3 hr): 0.00046 mg/mL
Concentration in lower container ([2]; Comparative Example D (vaseline gel), 5 hr): 0.00059 mg/mL
Concentration in lower container ([2]; Comparative Example D (vaseline gel), 10.5 hr): 0.00096 mg/mL
Concentration in lower container ([2]; Comparative Example D (vaseline gel), 24 hr): 0.00174 mg/mL
Concentration in lower container ([2]; Comparative Example D (vaseline gel), 26 hr): 0.00143 mg/mL
True Value Concentration (completely penetrated active agent) ([2]; Working Example 3 (aqua gel)): 0.09568 mg/mL
Concentration in lower container [2, 7]: 0.0132 mg/mL
Concentration in lower container [2, 8]: 0.03108 mg/mL
Concentration in lower container [2, 9]: 0.3959 mg/mL
Concentration in lower container [2, 10]: 0.6358 mg/mL
Concentration in lower container [2, 11]: 0.5871 mg/mL
Concentration in lower container ([2]; Working Example 3 (aqua gel), 26 hr): 0.5951 mg/mL
True Value Concentration (completely penetrated active agent) ([2]; Working Example 4 (O/W gel)): 0.1433 mg/mL
Concentration in lower container [2, 3]: 0.00651 mg/mL
Concentration in lower container [2, 4]: 0.06167 mg/mL
Concentration in lower container [2, 5]: 0.08107 mg/mL

Nc1nc2c(ncn2COCCO)c(=O)[nH]1 [Acyclovir (ACY), Acyclovir]
logP ([1]; 1-octanol/water): -1.58
True Value Concentration (completely penetrated active agent) [2, 6]: 0.1865 mg/mL
True Value Concentration (completely penetrated active agent) ([2]; Working Example 3 (aqua gel)): 0.09979 mg/mL
Concentration in lower container [2, 7]: 0.00597 mg/mL
Concentration in lower container [2, 8]: 0.02142 mg/mL
Concentration in lower container [2, 9]: 0.02964 mg/mL
Concentration in lower container [2, 10]: 0.06289 mg/mL
Concentration in lower container [2, 11]: 0.05863 mg/mL
True Value Concentration (completely penetrated active agent) ([2]; Working Example 4 (O/W gel)): 0.1375 mg/mL
Concentration in lower container [2, 3]: 0.00251 mg/mL
Concentration in lower container [2, 4]: 0.0605 mg/mL
Concentration in lower container [2, 5]: 0.0834 mg/mL
